According to patent US20250179193A1, “TREATMENT WITH AN ANTIBODY THAT BINDS EGFR AND CMET” (MERUS N.V., priority 2022, published 2025):

What was measured:
cMET than EGFR = settings: Moores et al. (2016); cited from earlier work
[1] = system: NSCLC CDX model HCC827-ER1 (EGFR exon 19 deletion E746-A750); settings: mouse, in vivo
Procedure: Body weights were measured twice per week after randomization.

Row | Compound | affinity imbalance, greater affinity for cMET than EGFR (cMET than EGFR) | absolute body weight [1]
1 | JNJ-61186372: bispecific cMET×EGFR antibody produced by controlled Fab-arm exchange (Moores et al 2016) | approximately 40 × | –
2 | C=CC(=O)Nc1cc(Nc2nccc(-c3cn(C)c4ccccc34)n2)c(OC)cc1N(C)CCN(C)C [Osimertinib] | – | lower compared to Groups 1 and 2
